Series [1] concerns sleeping induced by hexobarbital. The experiment in a line: Effect on the time of sleeping induced by hexobarbital. It counts as in vivo, ddY/Slc male rats. Particulars: 5 mg/kg perorally; ** p < 0.05 vs untreated (53.9 ± 2.7). The protocol:
Effect on the Time of Sleeping Induced by Hexobarbital
A selected compound of the present invention was administered perorally to ddY/Slc male rats (5-6 wk. old, 10 animals per group) in an amount of 50 or 100 mg/kg. One hour later, […] of hexobarbital was administered intraperitoneally to each animal, thereby causing the loss of orthogonal reflex. The time required for the recovery of orthogonal reflex was measured for each animal.
As comparative drugs, 50 or 100 mg/kg of disopyramide and 5 mg/kg of diazepam were administered perorally.

For series [2], the system named is Chloroform-Induced Arrythmia. The experiment in a line: Activity against chloroform-induced arrythmia in rats (prevention of ventricular fibrillation). Format: in vivo, Sprague-Dowley male rats. Particulars: starved rats; 20 mg/kg i.P.; 30 min prior to chloroform. As to the method: Activity Aganist Chloroform-Induced Arrythmia in Rats
The following procedures were substantially in accordance with the method of Erker and Baker (Arch. Int. Pharmacodyn., 243, 97-102, 1980). Aminophylline (20 mg/kg) was injected intramuscularly into two groups of Sprague-Dowley male rats (3-4 wk. old, 7 animals per group) weighing about 100 g on average, one group having been starved for 24 hours and the other group not starved. Thirty minutes after the injection, the animals were put into a 4,000-ml glass beaker with a lid that contained gauze impregnated with […] of chloroform. Fifty minutes later, the animals were recovered from the beaker and their chests were incised to check their hearts for the presence of ventricular fibrillation. The features of their cardiac rhythm were examined by the electrocardiogram. When no distinct fibrillation was observed, the heart was touched with tweezers. The heart was identified as fibrillar when rapid irregular twitchings occured on the surface of ventricles and continued for at least 5 seconds after chest incision or mechanical stimulation.
Selected compounds suspended in 3% gum arabic were administered in various doses to the rats either intraperitoneally (i.P.) or perorally (P.O.) 30 minutes prior to treatment with chloroform. The percent prevention of ventricular fibrillation was determined for each rat. Only a 3% gum arabic solution was administered to the control group.

For series [3] the following is noted: peroral, clinical; cited from earlier work.

As to `CN1C(=O)CN=C(c2ccccc2)c2cc(Cl)ccc21` [Diazepam], the “Time of sleeping (mean ± S.E.)” value in series [1] is reported as 136.4 ± 5.8 min.

Regarding `CCN(CC)CC(=O)Nc1c(C)cccc1C` [Lidocaine, reference compound], the “Percent prevention (ventricular fibrillation), starved” value in series [2] stood at 77.1%. Moreover, the “drug level in blood” value in series [3] was “too low to attain the desired effectiveness”.

The record behind these values is US4855497A, “Novel diamine derivatives” (Chugai Seiyaku Kabushiki Kaisha, priority 1985, dated 1989).
